Read-outs that look alike come from different tables or passages of the source.
Legend:
[1] = type: in vivo, human; conditions: expressors vs nonexpressors
[2] = type: in vivo, human; conditions: for AUC0–inf: whole blood, single oral 5 mg/kg CsA, mean ± SD

CC[C@@H]1NC(=O)[C@H]([C@H](O)[C@H](C)C/C=C/CO)N(C)C(=O)[C@H](C(C)C)N(C)C(=O)[C@H](CC(C)C)N(C)C(=O)[C@H](CC(C)(C)O)N(C)C(=O)[C@@H](C)NC(=O)[C@H](C)NC(=O)[C@H](CC(C)C)N(C)C(=O)[C@H](C(C)C)NC(=O)[C@H](CC(C)C)N(C)C(=O)CN(C)C1=O [AM19]
average cumulative amount excreted in urine, higher in CYP3A5 expressors compared to nonexpressors [1]: 48% | AUCAM19/AUCAM1 ratio, higher in CYP3A5 expressors compared to nonexpressors ([2]; expressors vs nonexpressors): 46.9% | average blood AUC, higher in CYP3A5 expressors compared to nonexpressors ([2]; expressors vs nonexpressors): 47.4% | AUC0–inf ([2]; CYP3A5 expressors (n=12)): 1360 ± 602 ng·h/mL | AUC0–inf ([2]; CYP3A5 nonexpressors (n=12)): 923 ± 343 ng·h/mL

Source: PMC3604156 (Transplantation, 2013)
